Experimental data reported in patent publication US11643385B2, “Polymorphic forms of RAD1901-2HCl” (RADIUS PHARMACEUTICALS, INC., priority 2018, dated 2023).
Marks after values point to notes of the source that are not given here.

Assay: Solubility assessment and polymorph screen on amorphous RAD1901-2HCl
Assay type: physicochemical
Details: not given
Experimental: In a scale-up preparation of amorphous RAD1901-2HCl, RAD1901-2HCl (600 mg) was dissolved in water (20 vol., 12 mL) and filtered to remove any remaining solid particles. The solution was then aliquoted into 24 HPLC vials, frozen in a dry ice/acetone bath and the solvent removed by lyophilisation. Solids produced by lyophilization were used directly in solubility assessment and polymorph screens in Example 4.
Amorphous RAD1901-2HCl prepared as described in Example 3B was used directly in solubility assessment and polymorph screens (Table 15). XRPD patterns were further obtained for amorphous RAD1901-2HCl prepared using other solvents.
In the polymorph screen of the amorphous RAD1901-2HCl prepared as described in Example 3B, an aliquot of each sample was examined for its morphology under the microscope, both after maturing at 25° C., and after maturing at 50° C./RT. […] In some instances, the sample appeared to be a mixture of various polymorphic forms, e.g. Form 2 and Form 3 (FIGS. 18B-18C), similar to the mixture of Forms 2 and 3 in Sample 2 having an equilibrium between the two solid forms, depending on the prevailing RH.

SMILES	Observation After maturation at 50° C.
CCNCCc1ccc(CN(CC)c2cc(OC)ccc2[C@@H]2CCc3cc(O)ccc3C2)cc1.Cl.Cl [Form B15.]	Fine
CCNCCc1ccc(CN(CC)c2cc(OC)ccc2[C@@H]2CCc3cc(O)ccc3C2)cc1.Cl.Cl [Form B17.]	Fine

Same assay, conditions: after maturation at 25° C.

SMILES	XRPD post 25° C. (form)
CCNCCc1ccc(CN(CC)c2cc(OC)ccc2[C@@H]2CCc3cc(O)ccc3C2)cc1.Cl.Cl [Form B12.]	Form 3
CCNCCc1ccc(CN(CC)c2cc(OC)ccc2[C@@H]2CCc3cc(O)ccc3C2)cc1.Cl.Cl [Form B13.]	Amorphous
CCNCCc1ccc(CN(CC)c2cc(OC)ccc2[C@@H]2CCc3cc(O)ccc3C2)cc1.Cl.Cl [Form B19.]	Form 3
CCNCCc1ccc(CN(CC)c2cc(OC)ccc2[C@@H]2CCc3cc(O)ccc3C2)cc1.Cl.Cl [Form B21.]	Form 1
CCNCCc1ccc(CN(CC)c2cc(OC)ccc2[C@@H]2CCc3cc(O)ccc3C2)cc1.Cl.Cl [Form B22.]	Form 3
CCNCCc1ccc(CN(CC)c2cc(OC)ccc2[C@@H]2CCc3cc(O)ccc3C2)cc1.Cl.Cl [Form B23.]	Form 3
CCNCCc1ccc(CN(CC)c2cc(OC)ccc2[C@@H]2CCc3cc(O)ccc3C2)cc1.Cl.Cl [Form B24.]	Form 3

Same assay, conditions: after maturation at 50° C./RT

SMILES	XRPD post 50° C./RT (form)
CCNCCc1ccc(CN(CC)c2cc(OC)ccc2[C@@H]2CCc3cc(O)ccc3C2)cc1.Cl.Cl [Form B5.]	Form 3
CCNCCc1ccc(CN(CC)c2cc(OC)ccc2[C@@H]2CCc3cc(O)ccc3C2)cc1.Cl.Cl [Form B6.]	Form 1^+
CCNCCc1ccc(CN(CC)c2cc(OC)ccc2[C@@H]2CCc3cc(O)ccc3C2)cc1.Cl.Cl [Form B7.]	Form 1^+
CCNCCc1ccc(CN(CC)c2cc(OC)ccc2[C@@H]2CCc3cc(O)ccc3C2)cc1.Cl.Cl [Form B8.]	Form 1
CCNCCc1ccc(CN(CC)c2cc(OC)ccc2[C@@H]2CCc3cc(O)ccc3C2)cc1.Cl.Cl [Form B10.]	Form 1
CCNCCc1ccc(CN(CC)c2cc(OC)ccc2[C@@H]2CCc3cc(O)ccc3C2)cc1.Cl.Cl [Form B12.]	Form 3
CCNCCc1ccc(CN(CC)c2cc(OC)ccc2[C@@H]2CCc3cc(O)ccc3C2)cc1.Cl.Cl [Form B13.]	Poor
CCNCCc1ccc(CN(CC)c2cc(OC)ccc2[C@@H]2CCc3cc(O)ccc3C2)cc1.Cl.Cl [Form B14.]	Poor
CCNCCc1ccc(CN(CC)c2cc(OC)ccc2[C@@H]2CCc3cc(O)ccc3C2)cc1.Cl.Cl [Form B15.]	Form 3
CCNCCc1ccc(CN(CC)c2cc(OC)ccc2[C@@H]2CCc3cc(O)ccc3C2)cc1.Cl.Cl [Form B17.]	Form 1*
CCNCCc1ccc(CN(CC)c2cc(OC)ccc2[C@@H]2CCc3cc(O)ccc3C2)cc1.Cl.Cl [Form B23.]	Form 3
CCNCCc1ccc(CN(CC)c2cc(OC)ccc2[C@@H]2CCc3cc(O)ccc3C2)cc1.Cl.Cl [Form B24.]	Form 3

Same assay, conditions: amorphous RAD1901-2HCl; 10 vol. solvent (solvent per sample ID)

SMILES	Solubility observation at 10 vol.
CCNCCc1ccc(CN(CC)c2cc(OC)ccc2[C@@H]2CCc3cc(O)ccc3C2)cc1.Cl.Cl [Form B5.]	X (X = suspension)
CCNCCc1ccc(CN(CC)c2cc(OC)ccc2[C@@H]2CCc3cc(O)ccc3C2)cc1.Cl.Cl [Form B6.]	X (X = suspension)
CCNCCc1ccc(CN(CC)c2cc(OC)ccc2[C@@H]2CCc3cc(O)ccc3C2)cc1.Cl.Cl [Form B7.]	X (X = suspension)
CCNCCc1ccc(CN(CC)c2cc(OC)ccc2[C@@H]2CCc3cc(O)ccc3C2)cc1.Cl.Cl [Form B8.]	X (X = suspension)
CCNCCc1ccc(CN(CC)c2cc(OC)ccc2[C@@H]2CCc3cc(O)ccc3C2)cc1.Cl.Cl [Form B10.]	X (X = suspension)
CCNCCc1ccc(CN(CC)c2cc(OC)ccc2[C@@H]2CCc3cc(O)ccc3C2)cc1.Cl.Cl [Form B12.]	S (S = solution)
CCNCCc1ccc(CN(CC)c2cc(OC)ccc2[C@@H]2CCc3cc(O)ccc3C2)cc1.Cl.Cl [Form B13.]	X (X = suspension)
CCNCCc1ccc(CN(CC)c2cc(OC)ccc2[C@@H]2CCc3cc(O)ccc3C2)cc1.Cl.Cl [Form B14.]	X (X = suspension)
CCNCCc1ccc(CN(CC)c2cc(OC)ccc2[C@@H]2CCc3cc(O)ccc3C2)cc1.Cl.Cl [Form B19.]	X (X = suspension)
CCNCCc1ccc(CN(CC)c2cc(OC)ccc2[C@@H]2CCc3cc(O)ccc3C2)cc1.Cl.Cl [Form B22.]	S (S = solution)
CCNCCc1ccc(CN(CC)c2cc(OC)ccc2[C@@H]2CCc3cc(O)ccc3C2)cc1.Cl.Cl [Form B23.]	X (X = suspension)
CCNCCc1ccc(CN(CC)c2cc(OC)ccc2[C@@H]2CCc3cc(O)ccc3C2)cc1.Cl.Cl [Form B24.]	X (X = suspension)

Same assay, conditions: maturation at 25° C.

SMILES	Observation After maturation at 25° C.
CCNCCc1ccc(CN(CC)c2cc(OC)ccc2[C@@H]2CCc3cc(O)ccc3C2)cc1.Cl.Cl [Form B19.]	Crystal
CCNCCc1ccc(CN(CC)c2cc(OC)ccc2[C@@H]2CCc3cc(O)ccc3C2)cc1.Cl.Cl [Form B22.]	S

Same assay, conditions: maturation at 50° C./RT

SMILES	Observation After maturation at 50° C.
CCNCCc1ccc(CN(CC)c2cc(OC)ccc2[C@@H]2CCc3cc(O)ccc3C2)cc1.Cl.Cl [Form B8.]	Crystalline
CCNCCc1ccc(CN(CC)c2cc(OC)ccc2[C@@H]2CCc3cc(O)ccc3C2)cc1.Cl.Cl [Form B10.]	Fine
CCNCCc1ccc(CN(CC)c2cc(OC)ccc2[C@@H]2CCc3cc(O)ccc3C2)cc1.Cl.Cl [Form B12.]	Lath
CCNCCc1ccc(CN(CC)c2cc(OC)ccc2[C@@H]2CCc3cc(O)ccc3C2)cc1.Cl.Cl [Form B13.]	Some
CCNCCc1ccc(CN(CC)c2cc(OC)ccc2[C@@H]2CCc3cc(O)ccc3C2)cc1.Cl.Cl [Form B19.]	Green
CCNCCc1ccc(CN(CC)c2cc(OC)ccc2[C@@H]2CCc3cc(O)ccc3C2)cc1.Cl.Cl [Form B21.]	Needle
CCNCCc1ccc(CN(CC)c2cc(OC)ccc2[C@@H]2CCc3cc(O)ccc3C2)cc1.Cl.Cl [Form B22.]	Green
CCNCCc1ccc(CN(CC)c2cc(OC)ccc2[C@@H]2CCc3cc(O)ccc3C2)cc1.Cl.Cl [Form B23.]	Fine
CCNCCc1ccc(CN(CC)c2cc(OC)ccc2[C@@H]2CCc3cc(O)ccc3C2)cc1.Cl.Cl [Form B24.]	Fine
